Values quoted from earlier work as cited in paper PMC9851200, “Multiparameter phenotypic screening for endogenous TFEB and TFE3 translocation identifies novel chemical series modulating lysosome function” (Autophagy, 2022).

Experiments:
Parameters in all cases: method as in original PKIS2 published data
[1] = target: T1, kinases (KINOMEscan panel) (Homo sapiens, UniProt O14936); conditions: kinase CASK; Published KINOMEscan; ref original PKIS2 published data; cited from earlier work
T1 sequence (O14936 1-926): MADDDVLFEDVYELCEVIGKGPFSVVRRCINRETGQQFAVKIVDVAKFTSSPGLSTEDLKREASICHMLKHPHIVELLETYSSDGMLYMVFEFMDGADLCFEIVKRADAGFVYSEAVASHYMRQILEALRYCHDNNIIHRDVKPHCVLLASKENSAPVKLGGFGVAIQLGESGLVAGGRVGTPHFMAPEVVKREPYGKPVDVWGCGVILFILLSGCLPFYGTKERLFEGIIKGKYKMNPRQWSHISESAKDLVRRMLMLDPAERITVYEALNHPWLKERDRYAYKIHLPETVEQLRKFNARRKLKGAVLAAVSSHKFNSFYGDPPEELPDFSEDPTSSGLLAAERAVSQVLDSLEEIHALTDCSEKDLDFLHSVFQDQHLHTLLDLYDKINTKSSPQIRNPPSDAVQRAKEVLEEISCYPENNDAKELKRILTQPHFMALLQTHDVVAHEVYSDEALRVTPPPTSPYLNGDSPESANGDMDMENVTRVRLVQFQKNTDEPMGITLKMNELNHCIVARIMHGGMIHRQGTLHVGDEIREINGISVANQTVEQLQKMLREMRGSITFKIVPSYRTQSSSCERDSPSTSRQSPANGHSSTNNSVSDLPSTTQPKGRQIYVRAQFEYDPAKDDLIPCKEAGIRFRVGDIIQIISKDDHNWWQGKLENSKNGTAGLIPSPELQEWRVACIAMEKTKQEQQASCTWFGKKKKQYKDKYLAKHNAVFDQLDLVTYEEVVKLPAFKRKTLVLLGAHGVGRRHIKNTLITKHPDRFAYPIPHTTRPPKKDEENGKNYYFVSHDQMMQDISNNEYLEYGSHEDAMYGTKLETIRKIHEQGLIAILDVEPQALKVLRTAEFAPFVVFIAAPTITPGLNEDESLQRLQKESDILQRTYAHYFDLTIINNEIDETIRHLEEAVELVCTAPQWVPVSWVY

[2] = target: kinases (KINOMEscan panel) (Homo sapiens, UniProt O60674); conditions: JAK2(JH1domain-catalytic); Published KINOMEscan; ref original PKIS2 published data; cited from earlier work
[3] = target: kinases (KINOMEscan panel) (Homo sapiens, UniProt O96013); conditions: PAK4; Published KINOMEscan; ref original PKIS2 published data; cited from earlier work
Sequence of kinases (KINOMEscan panel) (Homo sapiens, UniProt O96013) (O96013 whole entry): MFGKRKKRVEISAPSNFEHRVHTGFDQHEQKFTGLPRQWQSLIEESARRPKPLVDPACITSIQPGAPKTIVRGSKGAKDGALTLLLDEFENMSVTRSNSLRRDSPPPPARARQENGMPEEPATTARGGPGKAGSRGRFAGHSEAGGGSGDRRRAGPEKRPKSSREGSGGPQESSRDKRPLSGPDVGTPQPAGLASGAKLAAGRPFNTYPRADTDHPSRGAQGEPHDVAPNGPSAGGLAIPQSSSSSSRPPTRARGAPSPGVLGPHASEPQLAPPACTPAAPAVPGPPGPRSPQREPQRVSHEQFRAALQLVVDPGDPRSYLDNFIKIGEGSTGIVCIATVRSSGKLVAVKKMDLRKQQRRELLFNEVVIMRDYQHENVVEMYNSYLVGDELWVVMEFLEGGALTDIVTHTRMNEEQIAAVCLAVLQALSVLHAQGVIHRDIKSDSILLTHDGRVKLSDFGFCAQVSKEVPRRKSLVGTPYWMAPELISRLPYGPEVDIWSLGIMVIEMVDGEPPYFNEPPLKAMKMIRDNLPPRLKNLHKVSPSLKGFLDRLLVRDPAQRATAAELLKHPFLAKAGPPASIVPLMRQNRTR

[4] = target: kinases (KINOMEscan panel) (Homo sapiens, UniProt P16234); conditions: PDGFRA; Published KINOMEscan; ref original PKIS2 published data; cited from earlier work
Sequence of kinases (KINOMEscan panel) (Homo sapiens, UniProt P16234) (P16234 24-1089): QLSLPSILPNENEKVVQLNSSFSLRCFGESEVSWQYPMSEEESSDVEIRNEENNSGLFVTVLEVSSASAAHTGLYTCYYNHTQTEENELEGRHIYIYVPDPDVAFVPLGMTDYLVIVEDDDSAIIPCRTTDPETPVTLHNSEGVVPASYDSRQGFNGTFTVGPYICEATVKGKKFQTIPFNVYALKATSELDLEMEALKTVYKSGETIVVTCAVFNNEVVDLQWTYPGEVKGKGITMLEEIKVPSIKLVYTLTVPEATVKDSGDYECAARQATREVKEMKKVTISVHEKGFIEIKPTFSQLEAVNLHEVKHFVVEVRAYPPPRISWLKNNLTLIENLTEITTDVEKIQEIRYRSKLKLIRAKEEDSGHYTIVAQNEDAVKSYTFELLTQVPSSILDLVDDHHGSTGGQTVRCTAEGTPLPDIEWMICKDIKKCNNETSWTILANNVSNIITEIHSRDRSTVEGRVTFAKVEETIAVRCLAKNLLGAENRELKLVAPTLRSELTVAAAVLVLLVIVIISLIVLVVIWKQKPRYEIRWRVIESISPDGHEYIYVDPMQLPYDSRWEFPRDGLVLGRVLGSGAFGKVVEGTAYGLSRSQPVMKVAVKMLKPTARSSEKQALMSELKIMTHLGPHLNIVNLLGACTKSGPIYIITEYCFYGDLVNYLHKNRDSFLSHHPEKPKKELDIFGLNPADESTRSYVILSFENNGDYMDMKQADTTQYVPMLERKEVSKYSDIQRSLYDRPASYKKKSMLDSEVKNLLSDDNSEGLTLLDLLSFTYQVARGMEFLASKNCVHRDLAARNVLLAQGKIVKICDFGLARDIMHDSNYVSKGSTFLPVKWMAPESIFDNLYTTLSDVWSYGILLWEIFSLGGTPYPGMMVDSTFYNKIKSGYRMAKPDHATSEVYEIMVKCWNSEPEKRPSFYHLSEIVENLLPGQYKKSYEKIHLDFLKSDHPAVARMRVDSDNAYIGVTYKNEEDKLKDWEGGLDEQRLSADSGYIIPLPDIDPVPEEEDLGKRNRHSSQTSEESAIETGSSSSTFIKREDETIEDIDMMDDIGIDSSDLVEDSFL

[5] = target: kinases (KINOMEscan panel) (Homo sapiens, UniProt P17948); conditions: kinase FLT1; Published KINOMEscan; ref original PKIS2 published data; cited from earlier work
Sequence of kinases (KINOMEscan panel) (Homo sapiens, UniProt P17948) (P17948 27-1338): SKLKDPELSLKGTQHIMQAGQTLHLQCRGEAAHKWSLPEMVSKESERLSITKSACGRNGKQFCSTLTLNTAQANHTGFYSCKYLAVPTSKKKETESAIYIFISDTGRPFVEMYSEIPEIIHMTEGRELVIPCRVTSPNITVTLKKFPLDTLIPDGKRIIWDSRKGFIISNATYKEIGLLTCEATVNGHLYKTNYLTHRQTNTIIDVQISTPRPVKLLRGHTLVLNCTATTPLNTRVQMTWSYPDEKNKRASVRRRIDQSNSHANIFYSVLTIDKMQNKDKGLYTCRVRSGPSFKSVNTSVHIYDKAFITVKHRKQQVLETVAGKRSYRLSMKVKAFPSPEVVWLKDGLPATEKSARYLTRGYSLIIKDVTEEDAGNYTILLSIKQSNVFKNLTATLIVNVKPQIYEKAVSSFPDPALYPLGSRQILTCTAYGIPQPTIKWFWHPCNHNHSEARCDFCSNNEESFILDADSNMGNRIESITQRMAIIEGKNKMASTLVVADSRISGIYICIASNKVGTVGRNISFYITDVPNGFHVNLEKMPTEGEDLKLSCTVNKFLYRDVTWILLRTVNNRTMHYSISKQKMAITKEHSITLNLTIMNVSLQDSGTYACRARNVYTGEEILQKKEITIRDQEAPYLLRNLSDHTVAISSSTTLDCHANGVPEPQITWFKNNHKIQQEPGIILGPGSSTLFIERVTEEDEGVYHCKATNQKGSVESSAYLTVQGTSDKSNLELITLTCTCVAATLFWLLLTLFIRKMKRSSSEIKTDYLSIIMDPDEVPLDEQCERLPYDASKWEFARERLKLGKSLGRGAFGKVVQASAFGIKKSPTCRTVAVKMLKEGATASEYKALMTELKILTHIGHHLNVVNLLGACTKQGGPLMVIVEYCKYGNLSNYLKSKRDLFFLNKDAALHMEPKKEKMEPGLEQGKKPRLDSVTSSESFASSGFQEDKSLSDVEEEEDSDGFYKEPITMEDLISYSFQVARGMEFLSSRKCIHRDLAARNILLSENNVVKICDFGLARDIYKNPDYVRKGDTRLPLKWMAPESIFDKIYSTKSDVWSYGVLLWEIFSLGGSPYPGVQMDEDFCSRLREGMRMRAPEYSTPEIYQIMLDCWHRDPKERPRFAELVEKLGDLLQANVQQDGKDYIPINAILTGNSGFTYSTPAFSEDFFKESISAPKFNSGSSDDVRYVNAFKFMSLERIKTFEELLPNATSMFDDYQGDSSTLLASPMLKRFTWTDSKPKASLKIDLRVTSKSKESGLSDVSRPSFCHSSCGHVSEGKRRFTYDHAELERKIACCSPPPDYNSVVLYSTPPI

[6] = target: kinases (KINOMEscan panel) (Homo sapiens, UniProt P31749); conditions: kinase AKT1; Published KINOMEscan; ref original PKIS2 published data; cited from earlier work
Sequence of kinases (KINOMEscan panel) (Homo sapiens, UniProt P31749) (P31749 whole entry): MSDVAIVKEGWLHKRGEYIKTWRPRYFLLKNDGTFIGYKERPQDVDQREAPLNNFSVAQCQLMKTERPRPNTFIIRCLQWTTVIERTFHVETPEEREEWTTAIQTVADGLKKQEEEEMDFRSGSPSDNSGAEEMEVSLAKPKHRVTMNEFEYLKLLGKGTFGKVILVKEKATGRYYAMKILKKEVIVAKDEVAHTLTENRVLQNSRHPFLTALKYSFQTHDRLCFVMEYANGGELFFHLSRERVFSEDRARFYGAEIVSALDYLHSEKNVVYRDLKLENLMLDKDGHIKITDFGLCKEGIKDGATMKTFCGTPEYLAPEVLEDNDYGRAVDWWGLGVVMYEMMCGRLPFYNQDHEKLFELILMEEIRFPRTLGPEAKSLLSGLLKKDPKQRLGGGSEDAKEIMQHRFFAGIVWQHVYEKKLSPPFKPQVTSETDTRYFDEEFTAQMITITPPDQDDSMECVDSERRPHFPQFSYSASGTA

[7] = target: kinases (KINOMEscan panel) (Homo sapiens, UniProt P37023); conditions: ACVRL1; Published KINOMEscan; ref original PKIS2 published data; cited from earlier work
Sequence of kinases (KINOMEscan panel) (Homo sapiens, UniProt P37023) (P37023 22-503): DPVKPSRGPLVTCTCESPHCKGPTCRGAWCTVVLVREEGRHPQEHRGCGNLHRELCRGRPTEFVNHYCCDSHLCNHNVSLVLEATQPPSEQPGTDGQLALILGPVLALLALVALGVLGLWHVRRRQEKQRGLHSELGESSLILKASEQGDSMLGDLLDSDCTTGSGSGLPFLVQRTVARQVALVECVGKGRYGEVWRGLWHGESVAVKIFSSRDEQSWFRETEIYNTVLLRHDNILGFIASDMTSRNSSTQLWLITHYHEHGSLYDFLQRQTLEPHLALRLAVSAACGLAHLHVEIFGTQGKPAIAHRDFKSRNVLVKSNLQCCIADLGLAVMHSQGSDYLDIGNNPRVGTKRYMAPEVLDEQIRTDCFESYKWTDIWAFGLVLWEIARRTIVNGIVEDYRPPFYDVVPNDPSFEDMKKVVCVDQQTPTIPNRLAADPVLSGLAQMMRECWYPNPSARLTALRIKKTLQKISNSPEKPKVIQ

[8] = target: kinases (KINOMEscan panel) (Homo sapiens, UniProt P42336); conditions: kinase PIK3CA; Published KINOMEscan; ref original PKIS2 published data; cited from earlier work
Sequence of kinases (KINOMEscan panel) (Homo sapiens, UniProt P42336) (P42336 whole entry): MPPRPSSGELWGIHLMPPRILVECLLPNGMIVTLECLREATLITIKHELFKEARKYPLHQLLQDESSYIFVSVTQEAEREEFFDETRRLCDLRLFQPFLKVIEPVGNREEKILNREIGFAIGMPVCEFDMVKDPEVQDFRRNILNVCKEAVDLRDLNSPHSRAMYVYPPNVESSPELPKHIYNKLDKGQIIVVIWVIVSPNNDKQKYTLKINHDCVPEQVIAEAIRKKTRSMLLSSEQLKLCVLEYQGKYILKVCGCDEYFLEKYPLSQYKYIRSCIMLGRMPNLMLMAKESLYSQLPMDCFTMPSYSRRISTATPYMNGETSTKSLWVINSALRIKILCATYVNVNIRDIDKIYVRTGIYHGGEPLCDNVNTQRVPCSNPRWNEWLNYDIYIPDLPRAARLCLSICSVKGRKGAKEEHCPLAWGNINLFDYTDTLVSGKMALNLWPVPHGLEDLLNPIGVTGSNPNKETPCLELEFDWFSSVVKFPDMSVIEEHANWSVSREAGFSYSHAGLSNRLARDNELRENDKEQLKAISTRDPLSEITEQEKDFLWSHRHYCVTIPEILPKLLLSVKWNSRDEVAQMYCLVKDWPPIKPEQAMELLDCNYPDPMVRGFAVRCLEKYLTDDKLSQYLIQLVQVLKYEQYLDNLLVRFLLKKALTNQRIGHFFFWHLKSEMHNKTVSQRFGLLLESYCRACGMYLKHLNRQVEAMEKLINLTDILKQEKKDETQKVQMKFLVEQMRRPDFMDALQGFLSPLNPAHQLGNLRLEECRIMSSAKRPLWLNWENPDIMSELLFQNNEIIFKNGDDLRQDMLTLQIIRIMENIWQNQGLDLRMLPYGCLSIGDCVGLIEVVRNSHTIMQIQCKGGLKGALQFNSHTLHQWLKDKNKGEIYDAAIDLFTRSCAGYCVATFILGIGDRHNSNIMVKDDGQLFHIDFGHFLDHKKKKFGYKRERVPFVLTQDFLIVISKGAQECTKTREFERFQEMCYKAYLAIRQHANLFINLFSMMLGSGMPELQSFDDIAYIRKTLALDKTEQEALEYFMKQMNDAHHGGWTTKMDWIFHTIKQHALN

[9] = target: kinases (KINOMEscan panel) (Homo sapiens, UniProt Q9H0K1); conditions: kinase SIK2; Published KINOMEscan; ref original PKIS2 published data; cited from earlier work
[10] = target: T2, kinases (KINOMEscan panel) (Homo sapiens, UniProt Q9H2K8); conditions: kinase TAOK3; Published KINOMEscan; ref original PKIS2 published data; cited from earlier work
T2 sequence (Q9H2K8 1-898): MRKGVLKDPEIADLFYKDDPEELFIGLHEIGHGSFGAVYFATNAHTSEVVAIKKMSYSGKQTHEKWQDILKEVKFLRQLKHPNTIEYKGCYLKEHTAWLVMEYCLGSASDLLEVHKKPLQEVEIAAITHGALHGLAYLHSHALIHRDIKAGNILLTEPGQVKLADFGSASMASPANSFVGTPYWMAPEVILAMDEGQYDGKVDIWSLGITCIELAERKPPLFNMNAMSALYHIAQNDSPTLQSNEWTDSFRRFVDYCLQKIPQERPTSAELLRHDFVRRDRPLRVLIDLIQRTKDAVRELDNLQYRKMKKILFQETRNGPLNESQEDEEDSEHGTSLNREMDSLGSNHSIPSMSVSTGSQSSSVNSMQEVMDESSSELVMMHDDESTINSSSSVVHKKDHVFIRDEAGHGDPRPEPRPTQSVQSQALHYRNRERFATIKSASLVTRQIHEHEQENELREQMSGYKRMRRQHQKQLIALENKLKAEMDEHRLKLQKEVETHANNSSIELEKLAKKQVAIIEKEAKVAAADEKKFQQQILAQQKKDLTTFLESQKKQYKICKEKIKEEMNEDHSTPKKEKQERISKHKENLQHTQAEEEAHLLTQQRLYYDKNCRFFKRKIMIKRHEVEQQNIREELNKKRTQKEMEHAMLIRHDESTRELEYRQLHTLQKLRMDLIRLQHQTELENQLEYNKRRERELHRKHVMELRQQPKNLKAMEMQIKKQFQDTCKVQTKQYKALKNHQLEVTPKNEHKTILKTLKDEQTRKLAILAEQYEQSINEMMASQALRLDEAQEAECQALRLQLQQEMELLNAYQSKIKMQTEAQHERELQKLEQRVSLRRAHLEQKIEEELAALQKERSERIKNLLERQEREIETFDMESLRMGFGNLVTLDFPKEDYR

## Cc1cccc(-c2nc(Nc3ccncc3)c3ccccc3n2)n1 [NK215]
[1]
  KINOMEscan CASK: 0
[2]
  KINOMEscan JAK2(JH1domain-catalytic): 0
[3]
  KINOMEscan PAK4: 0
[4]
  KINOMEscan PDGFRA: 0
[5]
  KINOMEscan FLT1: 0
[6]
  KINOMEscan AKT1: 20
[7]
  KINOMEscan ACVRL1: 65
[8]
  KINOMEscan PIK3CA: 0
[9]
  KINOMEscan SIK2: 0
[10]
  KINOMEscan TAOK3: 0
